According to US11648248B1 (King Abdulaziz University, priority 2022, dated 2023):
Values after ≈ are worked out from the molar mass of the structure shown. Where two headings read alike, the source gives them in different places.

Assays:
Type in all cases: cell-based
[1] = system: Methicillin-resistant Staphylococcus aureus NRS384 (MRSA USA300); experiment: MIC broth microdilution, initial screening
Method: The minimum inhibitory concentrations (MICs) of the tested compounds and control drugs (linezolid, vancomycin, gentamicin (antibiotics) and fluconazole and 5-fluorocytosine (5-FC) (antifungal drugs)) were determined using the broth microdilution method, according to guidelines outlined by the Clinical and Laboratory Standards Institute (CLSI, Clinical and Laboratory Standards Institute, Methods for antimicrobial susceptibility testing of anaerobic bacteria; approved standard, M11-A8. 8th ed., 2012; CLSI, Clinical and Laboratory Standards Institute. M27-A3 Reference Method for Broth Dilution Antifungal Susceptibility Testing of Yeasts; Approved Standard—Third Edition, Wayne, Pa., 2008) against clinically-relevant bacterial (methicillin-resistant Staphylococcus aureus (MRSA), Escherichia coli, and C. difficile strains) and fungal (Candida albicans) strains. S. aureus and E. coli were grown aerobically overnight on tryptone soy agar plates at 37° C. C. difficile was grown anaerobically on brain heart infusion supplemented agar at 37° C. for 48 hours. C. albicans was grown aerobically overnight on yeast peptone dextrose (YPD) agar plate at 35° C. Afterwards, a bacterial solution equivalent to 0.5 McFarland standard was prepared and diluted in cation-adjusted Mueller-Hinton broth (CAMHB) (for S. aureus and E. coli) to achieve a bacterial concentration of about 5×10^5 CFU/mL. C. difficile was diluted in brain heart infusion supplemented broth, supplemented with yeast extract, hemin and vitamin K to achieve a bacterial concentration of about 5×10^5 CFU/mL. C. albicans was diluted in Roswell Park Memorial Institute (RPMI 1640) medium with glutamine and without bicarbonate (GIBCO by Life Technologies, Green Island, N.Y., USA) which was buffered to pH 7.0 with 0.165 M of [3-(N-morpholino) propanesulfonic acid] (MOPS) (DOT Scientific Inc., Burton, Mich., USA) to achieve a fungal concentration of about 1.5×10^3 CFU/mL. Compounds and control drugs were added in the first row of the 96-well plates and serially diluted with the corresponding media containing bacteria. Plates were then incubated aerobically at 37° C. for 18-20 hours (for S. aureus and E. coli). C. difficile was incubated anaerobically at 37° C. for 48 hours. C. albicans was incubated aerobically at 37° C. for 24 hours.
The minimum inhibitory concentrations (MICs) of the tested compounds and control drugs; linezolid, vancomycin, gentamicin (antibiotics) and fluconazole and 5-fluorocytosine (5-FC) (antifungal drugs) were determined using the broth microdilution method, according to guidelines outlined by the Clinical and Laboratory Standards Institute (CLSI)^1, 2, 3 against clinically-relevant bacterial (methicillin-resistant Staphylococcus aureus (MRSA), Escherichia coli and Clostridium difficile strains) and fungal (Candida albicans) strain. S. aureus and E. coli were grown aerobically overnight on tryptone soy agar plates at 37° C. C. difficile was grown anaerobically on brain heart infusion supplemented agar at 37° C. for 48 hours. C. albicans was grown aerobically overnight on yeast peptone dextrose (YPD) agar plate at 35° C. Afterwards, a bacterial solution equivalent to 0.5 McFarland standard was prepared and diluted in cation-adjusted Mueller-Hinton broth (CAMHB) (for S. aureus and E. coli) to achieve a bacterial concentration of about 5×10^5 CFU/mL. C. difficile was diluted in brain heart infusion supplemented broth, supplemented with yeast extract, hemin and vitamin K to achieve a bacterial concentration of about 5×10^5 CFU/mL. C. albicans was diluted in Roswell Park Memorial Institute (RPMI 1640) medium with glutamine and without bicarbonate (GIBCO by Life Technologies, Green Island, N.Y., USA) which was buffered to pH 7.0 with 0.165 M of [3-(N-morpholino) propanesulfonic acid]

[2] = system: Cephalosporin-resistant Streptococcus pneumoniae ATCC-700677; experiment: MBC by plating from MIC wells
Excerpt: (§1) Based upon the initial results obtained, the active compounds were further screened against additional clinical isolates of methicillin-sensitive S. aureus (MSSA), methicillin-resistant S. aureus (MRSA), vancomycin-resistant S. aureus (VRSA), Staphylococcus epidermidis, vancomycin-resistant Enterococcus faecium (VRE), vancomycin-resistant Enterococcus faecalis (VRE) and Streptococcus pneumoniae, as presented in Table 2. Additionally, we examined whether the compounds were bacteriostatic (inhibit bacteria from growing) or bactericidal (kill bacteria) by determining the minimum bactericidal concentration (MBC). The MBC was determined by plating 5 μL from each well where no growth was present (in the MIC plates) onto tryptic soya agar plates and incubating plates at 37° C. for 24 hours. The MBC was categorized as the lowest concentration that generated a 99.9% reduction in bacterial colony-forming units (Table 3).

[3] = system: Methicillin-sensitive Staphylococcus aureus (MSSA NRS-107); experiment: MBC by plating from MIC wells; settings: read-out: MBC MSSA NRS-107
Excerpt: as §1

[4] = system: Methicillin-sensitive Staphylococcus aureus ATCC-6538 (MSSA ATCC-6538); experiment: MBC by plating from MIC wells; settings: read-out: MBC MSSA ATCC-6538
Excerpt: as §1

[5] = system: Staphylococcus epidermidis (NRS-101); experiment: MBC by plating from MIC wells
Excerpt: as §1

[6] = system: Vancomycin-resistant Staphylococcus aureus (VRSA10); experiment: MBC by plating from MIC wells; settings: read-out: MBC VRSA10
Excerpt: as §1

[7] = MRSA NRS384 (USA300), broth microdilution, 18-20 hours, read-out: minimum inhibitory concentration (MIC) S. aureus (MRSA USA300)
[8] = ATCC700677, 99.9% reduction in CFU, read-out: MBC S. pneumoniae ATCC 700677
[9] = NRS101, 99.9% reduction in CFU, read-out: MBC S. epidermidis NRS 101
[10] = read-out: minimum inhibitory concentration (MIC) S. aureus (MRSA USA300), MRSA NRS384 (USA300), broth microdilution, 18-20 hours

`CC(=O)NC[C@H]1CN(c2ccc(N3CCOCC3)c(F)c2)C(=O)O1` [Linezolid, reference compound] showed an MIC [1, 7] of 1 µg/mL (≈ 2.96 µM), an MBC [2, 8] of 16 µg/mL (≈ 47.4 µM) and an MBC ([3]; 99.9% reduction in CFU) of 16 µg/mL (≈ 47.4 µM). For the same molecule, the MBC ([4]; 99.9% reduction in CFU) was 8 µg/mL (≈ 23.7 µM), the MBC [5, 9] was 8 µg/mL (≈ 23.7 µM) and the MBC ([6]; 99.9% reduction in CFU) was over 64 µg/mL.
For `O=C(Nc1ccc(-c2ccc(=O)[nH]n2)cc1)Nc1ccc(Cl)c(Cl)c1` [MY21, 1-(3,4-dichlorophenyl)-3-(4-(6-oxo-1,6-dihydropyridazin-3-yl)phenyl)urea], the MIC [1, 10] was 0.5 to 1 µg/mL (≈ 1.33 to 2.67 µM), the MBC [2, 8] was 4 µg/mL (≈ 10.7 µM) and the MBC ([3]; 99.9% reduction in CFU) was 4 µg/mL (≈ 10.7 µM). The MBC ([4]; 99.9% reduction in CFU) was 4 µg/mL (≈ 10.7 µM), the MBC [5, 9] was 4 µg/mL (≈ 10.7 µM) and the MBC ([6]; 99.9% reduction in CFU) was 2 µg/mL (≈ 5.33 µM).
For `CNC(=O)c1cc(Oc2ccc(NC(=O)Nc3ccc(Cl)c(C(F)(F)F)c3)cc2)ccn1` [Sorafenib, reference compound], the MIC [1, 7] was 4 µg/mL (≈ 8.61 µM), the MBC [2, 8] was over 64 µg/mL and the MBC ([3]; 99.9% reduction in CFU) was over 64 µg/mL. For the same molecule, the MBC ([4]; 99.9% reduction in CFU) was over 64 µg/mL, the MBC [5, 9] was over 64 µg/mL and the MBC ([6]; 99.9% reduction in CFU) was over 64 µg/mL.
`O=C(Nc1ccc(Oc2ccc(=O)[nH]n2)cc1)Nc1ccc(Cl)c(Cl)c1` [MY24, 1-(3,4-dichlorophenyl)-3-(4-((6-oxo-1,6-dihydropyridazin-3-yl)oxy)phenyl)urea] gave an MIC [1, 10] of 0.5 to 1 µg/mL (≈ 1.28 to 2.56 µM), an MBC [2, 8] of over 64 µg/mL and an MBC ([3]; 99.9% reduction in CFU) of 16 µg/mL (≈ 40.9 µM). For the same molecule, the MBC ([4]; 99.9% reduction in CFU) was over 64 µg/mL, the MBC [5, 9] was 8 µg/mL (≈ 20.4 µM) and the MBC ([6]; 99.9% reduction in CFU) was over 64 µg/mL.
In the case of `O=C(Nc1cccc(Nc2ccc(Cl)nn2)c1)Nc1ccc(Cl)c(Cl)c1` [MY14, 1-(3-((6-chloropyridazin-3-yl)amino)phenyl)-3-(3,4-dichlorophenyl)urea], the MBC [2, 8] is reported as over 64 µg/mL, the MBC ([3]; 99.9% reduction in CFU) is reported as 8 µg/mL (≈ 19.6 µM) and the MBC ([4]; 99.9% reduction in CFU) is reported as 32 µg/mL (≈ 78.3 µM). For the same molecule, the MBC [5, 9] was 64 µg/mL (≈ 157 µM) and the MBC ([6]; 99.9% reduction in CFU) was 8 µg/mL (≈ 19.6 µM).
`CN[C@H](CC(C)C)C(=O)N[C@H]1C(=O)N[C@@H](CC(N)=O)C(=O)N[C@H]2C(=O)N[C@H]3C(=O)N[C@H](C(=O)N[C@H](C(=O)O)c4cc(O)cc(O)c4-c4cc3ccc4O)[C@H](O)c3ccc(c(Cl)c3)Oc3cc2cc(c3O[C@@H]2O[C@H](CO)[C@@H](O)[C@H](O)[C@H]2O[C@H]2C[C@](C)(N)[C@H](O)[C@H](C)O2)Oc2ccc(cc2Cl)[C@H]1O` [Vancomycin, reference compound] showed an MIC ([1]; read-out: minimum inhibitory concentration (MIC) S. aureus (MRSA USA300)) of 1 µg/mL (≈ 0.69 µM), an MBC ([2]; ATCC700677, read-out: MBC S. pneumoniae ATCC 700677) of 2 µg/mL (≈ 1.38 µM) and an MBC [3] of 2 µg/mL (≈ 1.38 µM). It also gave an MBC [4] of 2 µg/mL (≈ 1.38 µM), an MBC ([5]; NRS101, read-out: MBC S. epidermidis NRS 101) of 2 µg/mL (≈ 1.38 µM) and an MBC [6] of over 64 µg/mL.
`O=C(Nc1ccc(Oc2ccc(=O)[nH]n2)cc1)Nc1ccc(Cl)c(C(F)(F)F)c1` [MY31, 1-(4-chloro-3-(trifluoromethyl)phenyl)-3-(4-((6-oxo-1,6-dihydropyridazin-3-yl)oxy)phenyl)urea] was tested, and the MIC [1, 10] was 0.5 to 1 µg/mL (≈ 1.18 to 2.35 µM), the MBC [2, 8] was 2 µg/mL (≈ 4.71 µM) and the MBC ([3]; 99.9% reduction in CFU) was 2 µg/mL (≈ 4.71 µM). The MBC ([4]; 99.9% reduction in CFU) was over 64 µg/mL, the MBC [5, 9] was 1 µg/mL (≈ 2.35 µM) and the MBC ([6]; 99.9% reduction in CFU) was over 64 µg/mL.
